Data published in article PMC8156151 (The European Respiratory Journal, 2021).

Columns and labels:
Format in all cases: in vivo, human
[1] = tested on: PAI-1; assay: Plasma biomarker PAI-1; settings: IPF patients
Protocol: (§1) All patients, investigators, sites and study sponsor personnel were blinded to the study group assignments throughout the study. Patients underwent study-specific assessments on days 2, 3, 7, 14 and 15, and a post-study assessment was carried out 26–30 days after the last day of the study period. Assessments included vital signs (supine blood pressure, pulse, oxygen saturation, oral temperature and respiratory rate), spirometry, 12-lead ECG, physical examination, laboratory safety screen (haematology, biochemistry, urinalysis and urinary drugs of abuse screen) and blood sampling for PK measurements. All adverse events and concomitant medications were recorded from the time of the screening visit until the post-study follow-up visit. BAL was performed at day −1 (24 h before the first dose) and at day 14 (2 h after the last dose). The BAL procedure was performed as per international guidelines. Briefly, 240 mL of 0.9% saline at room temperature was instilled in 40 mL aliquots into the right middle lobe and aspirated by suction after each aliquot.
(§2) BAL cells were separated from fluid by centrifugation, and cells were collected, stained with antibodies (supplementary material) and then fixed before analysis using a LSR Fortessa flow cytometer (Becton Dickinson, Franklin Lakes, NJ, USA). Data were analysed using FlowJo software (Tree Star, Ashland, OR, USA). Macrophages were identified as having high side scatter properties and human leukocyte antigen-DR positivity. Gal-3 expression (mean fluorescence intensity) was determined from the macrophage gate (supplementary figures S1 and S2). […] Samples were analysed by magnetic Luminex assay (R&D Systems, Minneapolis, MN, USA) or ELISA.
(§3) For part 2 of the study, placebos were combined from the three dose-specific cohorts into a pooled control group (n=9). For alveolar macrophage Gal-3 expression and the plasma biomarkers, ANCOVA was performed for percentage of baseline ((day 14/day 1)×100). The ANCOVA model included effects for treatment group and baseline (day 1) value. […] An additional analysis including dose as a continuous covariate was also performed. The Pearson correlation coefficient (r) and associated p-value were calculated for percentage of baseline and day 14 values between plasma biomarkers and alveolar macrophage Gal-3 expression. […] The analysis is exploratory and there was no pre-planned adjustment for multiple testing; the study was not powered for this. Alveolar macrophage Gal-3 expression was considered the primary exploratory analysis with the pre-selected biomarkers secondary. A Bonferroni correction for multiple testing of the secondary end-points comparing the 10 mg group with placebo gives a critical value of 0.0063. Data are presented as the difference in least square means with 95% confidence interval and p-value unless otherwise stated. All analyses were performed using SAS version 9.4 (SAS Institute, Cary, NC, USA). […]

[2] = tested on: HGF; assay: Plasma biomarker HGF; settings: for HGF raw data, Mean (SD) / HGF least square means % baseline±SEM: IPF patients
Protocol: as §1, §2, §3

[3] = tested on: Periostin; assay: Plasma biomarker periostin; settings: for Periostin raw data, Mean (SD) / Periostin least square means % baseline±SEM: IPF patients
Protocol: as §1, §2, §3

[4] = tested on: YKL-40 (CHI3L1); assay: Plasma biomarker YKL-40; settings: for YKL-40 (CHI3L1) raw data, Mean (SD) / YKL-40 (CHI3L1) least square means % baseline±SEM: IPF patients
Protocol: as §1, §2, §3

[5] = tested on: CCL5 (RANTES); assay: Plasma biomarker CCL5; settings: for CCL5 (RANTES) raw data, Mean (SD) / CCL5 (RANTES) least square means % baseline±SEM: IPF patients
Protocol: as §1, §2, §3

[6] = tested on: CCL18 (PARC); assay: Plasma biomarker CCL18; settings: IPF patients
Protocol: as §1, §2, §3

OC[C@H]1O[C@@H](S[C@@H]2O[C@H](CO)[C@H](O)[C@H](n3cc(-c4cccc(F)c4)nn3)[C@H]2O)[C@H](O)[C@@H](n2cc(-c3cccc(F)c3)nn2)[C@H]1O [TD139]
PAI-1 raw data, Mean (SD) ([1]; Day 14, 0.3 mg): 45736.7 (29863.26) pg/ml | PAI-1 raw data, Mean (SD) ([1]; Day 14, 3 mg): 45744.4 (44222.1) pg/ml | PAI-1 raw data, Mean (SD) ([1]; Day 14, 10 mg): 23122.2 (12659.84) pg/ml | PAI-1 least square means % baseline±SEM ([1]; day 14, 0.3 mg once daily): 84.6±48.8 % baseline | PAI-1 least square means % baseline±SEM ([1]; day 14, 3 mg once daily): 92.4±44.5 % baseline | PAI-1 least square means % baseline±SEM ([1]; day 14, 10 mg once daily): 45.8±43.7 % baseline | HGF difference in least square means % baseline (95% CI) ([2]; 10 mg vs placebo, ANCOVA): −37.2 (−85.5–11.2) % baseline | HGF raw data, Mean (SD) ([2]; Day 14, 0.3 mg): 109.8 (23.24) pg/ml | HGF raw data, Mean (SD) ([2]; Day 14, 3 mg): 159.1 (110.2) pg/ml | HGF raw data, Mean (SD) ([2]; Day 14, 10 mg): 131.2 (44.47) pg/ml | HGF least square means % baseline±SEM ([2]; day 14, 0.3 mg once daily): 100.3±17.5 % baseline | HGF least square means % baseline±SEM ([2]; day 14, 3 mg once daily): 103.2±16.9 % baseline | HGF least square means % baseline±SEM ([2]; day 14, 10 mg once daily): 73.2±18.8 % baseline | Periostin difference in least square means % baseline (95% CI) ([3]; 10 mg vs placebo, ANCOVA): −5.4 (−18.8–8.0) % baseline | Periostin raw data, Mean (SD) ([3]; Day 14, 0.3 mg): 125952.3 (17487.63) pg/ml | Periostin raw data, Mean (SD) ([3]; Day 14, 3 mg): 142019.1 (30390.08) pg/ml | Periostin raw data, Mean (SD) ([3]; Day 14, 10 mg): 108663.7 (24686.82) pg/ml | Periostin least square means % baseline±SEM ([3]; day 14, 0.3 mg once daily): 114.0±5.3 % baseline | Periostin least square means % baseline±SEM ([3]; day 14, 3 mg once daily): 99.3±5.2 % baseline | Periostin least square means % baseline±SEM ([3]; day 14, 10 mg once daily): 93.1±5.0 % baseline | YKL-40 (CHI3L1) difference in least square means % baseline (95% CI) ([4]; 10 mg vs placebo, ANCOVA): −28.9 (−55.9– −1.9) % baseline | YKL-40 (CHI3L1) raw data, Mean (SD) ([4]; Day 14, 0.3 mg): 45140.2 (34041.85) pg/ml | YKL-40 (CHI3L1) raw data, Mean (SD) ([4]; Day 14, 3 mg): 146819.5 (40114.19) pg/ml | YKL-40 (CHI3L1) raw data, Mean (SD) ([4]; Day 14, 10 mg): 79975.5 (38590.77) pg/ml | YKL-40 (CHI3L1) least square means % baseline±SEM ([4]; day 14, 0.3 mg once daily): 84.1±12.5 % baseline | YKL-40 (CHI3L1) least square means % baseline±SEM ([4]; day 14, 3 mg once daily): 50.2±18.6 % baseline | YKL-40 (CHI3L1) least square means % baseline±SEM ([4]; day 14, 10 mg once daily): 51.6±10.4 % baseline | CCL5 (RANTES) difference in least square means % baseline (95% CI) ([5]; 10 mg vs placebo, ANCOVA): −54.1 (−147–38.8) % baseline | CCL5 (RANTES) raw data, Mean (SD) ([5]; Day 14, 0.3 mg): 47658.1 (27017.8) pg/ml | CCL5 (RANTES) raw data, Mean (SD) ([5]; Day 14, 3 mg): 75675.6 (92820.57) pg/ml | CCL5 (RANTES) raw data, Mean (SD) ([5]; Day 14, 10 mg): 33994.2 (29435.9) pg/ml | CCL5 (RANTES) least square means % baseline±SEM ([5]; day 14, 0.3 mg once daily): 62.3±37.1 % baseline | CCL5 (RANTES) least square means % baseline±SEM ([5]; day 14, 3 mg once daily): 115.1±35.1 % baseline | CCL5 (RANTES) least square means % baseline±SEM ([5]; day 14, 10 mg once daily): 75.8±35.8 % baseline | CCL18 (PARC) raw data, Mean (SD) ([6]; Day 14, 0.3 mg): 79733.8 (25166.88) pg/ml | CCL18 (PARC) raw data, Mean (SD) ([6]; Day 14, 3 mg): 73022.7 (33487.12) pg/ml | CCL18 (PARC) raw data, Mean (SD) ([6]; Day 14, 10 mg): 53456.8 (11339.99) pg/ml | CCL18 (PARC) least square means % baseline±SEM ([6]; day 14, 0.3 mg once daily): 89.6±11.8 % baseline | CCL18 (PARC) least square means % baseline±SEM ([6]; day 14, 3 mg once daily): 98.9±12.0 % baseline | CCL18 (PARC) least square means % baseline±SEM ([6]; day 14, 10 mg once daily): 74.6±11.8 % baseline
